Square brackets hold non-standard residues; d marks the D form. Peptide text beside a SMILES is read from it. NMeR = CN[C@@H](CCCNC(=N)N)C(=O)O; 3Amb = NCc1cccc(C(=O)O)c1; dAbu = CC[C@@H](N)C(=O)O Some results are limits rather than exact numbers.

The IC50 is the concentration at which inhibition is half-maximal. The low end stands for greater potency in that assay, the high end for weaker potency in that assay.

For the experiment, the target named is Integrin alpha-IIb/beta-3 (Homo sapiens, UniProt P08514+P05106). The experiment in a line: Inhibition of human platelet aggregation mediated by alpha llb/beta3 interaction with fibrinogen.
Chain of Integrin alpha-IIb/beta-3 (P05106 27-788 limits assumed): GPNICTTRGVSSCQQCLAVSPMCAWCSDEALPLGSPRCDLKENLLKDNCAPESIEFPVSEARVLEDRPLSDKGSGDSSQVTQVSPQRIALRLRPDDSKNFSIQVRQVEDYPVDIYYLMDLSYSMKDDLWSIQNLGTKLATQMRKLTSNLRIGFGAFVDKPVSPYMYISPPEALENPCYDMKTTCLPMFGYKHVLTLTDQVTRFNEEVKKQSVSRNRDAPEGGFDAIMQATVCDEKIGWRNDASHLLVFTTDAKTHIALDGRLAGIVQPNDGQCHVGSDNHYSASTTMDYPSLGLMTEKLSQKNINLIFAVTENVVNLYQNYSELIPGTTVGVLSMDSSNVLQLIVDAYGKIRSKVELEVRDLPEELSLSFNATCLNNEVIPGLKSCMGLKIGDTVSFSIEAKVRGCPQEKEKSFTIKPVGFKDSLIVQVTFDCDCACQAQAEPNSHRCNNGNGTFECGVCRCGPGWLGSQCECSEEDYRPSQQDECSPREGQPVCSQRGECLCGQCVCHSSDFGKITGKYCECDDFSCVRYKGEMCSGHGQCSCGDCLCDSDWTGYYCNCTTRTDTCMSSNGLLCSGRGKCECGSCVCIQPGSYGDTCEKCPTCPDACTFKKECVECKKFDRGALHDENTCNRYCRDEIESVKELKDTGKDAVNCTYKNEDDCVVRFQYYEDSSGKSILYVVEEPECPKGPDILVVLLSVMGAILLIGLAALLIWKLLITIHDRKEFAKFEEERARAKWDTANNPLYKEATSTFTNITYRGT
Chain of Integrin alpha-IIb/beta-3 (P08514 32-887 limits assumed): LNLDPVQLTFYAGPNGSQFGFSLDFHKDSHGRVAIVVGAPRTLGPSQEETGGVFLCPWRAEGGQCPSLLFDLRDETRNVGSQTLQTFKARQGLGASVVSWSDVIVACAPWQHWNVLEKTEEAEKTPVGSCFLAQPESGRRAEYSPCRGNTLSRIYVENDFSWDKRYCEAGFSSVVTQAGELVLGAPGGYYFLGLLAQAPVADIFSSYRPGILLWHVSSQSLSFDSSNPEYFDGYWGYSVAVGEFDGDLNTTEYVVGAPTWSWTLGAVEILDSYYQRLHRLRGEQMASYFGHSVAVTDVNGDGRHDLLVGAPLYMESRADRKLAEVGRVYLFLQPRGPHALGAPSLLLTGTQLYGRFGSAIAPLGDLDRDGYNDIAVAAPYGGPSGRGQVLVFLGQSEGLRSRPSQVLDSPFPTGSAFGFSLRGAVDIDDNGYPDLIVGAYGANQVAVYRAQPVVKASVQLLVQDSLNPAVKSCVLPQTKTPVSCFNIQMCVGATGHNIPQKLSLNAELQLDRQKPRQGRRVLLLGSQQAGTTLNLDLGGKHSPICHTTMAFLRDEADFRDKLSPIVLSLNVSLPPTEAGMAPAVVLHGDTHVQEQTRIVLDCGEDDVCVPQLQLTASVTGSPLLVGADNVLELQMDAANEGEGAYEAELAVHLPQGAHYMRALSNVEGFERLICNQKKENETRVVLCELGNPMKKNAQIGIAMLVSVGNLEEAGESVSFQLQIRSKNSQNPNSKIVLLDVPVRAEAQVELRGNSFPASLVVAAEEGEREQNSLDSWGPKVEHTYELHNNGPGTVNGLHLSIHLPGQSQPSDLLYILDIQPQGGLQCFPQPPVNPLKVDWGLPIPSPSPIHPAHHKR
Chain of Integrin alpha-IIb/beta-3 (P08514 891-1039 limits assumed): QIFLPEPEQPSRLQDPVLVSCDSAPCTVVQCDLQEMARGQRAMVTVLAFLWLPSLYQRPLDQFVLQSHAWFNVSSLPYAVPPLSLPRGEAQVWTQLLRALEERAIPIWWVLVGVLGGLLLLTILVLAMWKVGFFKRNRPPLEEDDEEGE
In turn, `CC[C@H]1NC(=O)c2cccc(c2)CNC(=O)[C@H](CC(=O)O)NC(=O)CNC(=O)[C@H](CCCN=C(N)N)N(C)C1=O` [DMP-728] (cyclo([NMeR]GD[3Amb][dAbu])) showed an IC50 of 0.02 µM.

`N=C(N)NCCC[C@@H]1NC(=O)[C@H](CC(=O)O)NC(=O)CNC(=O)[C@H](CCCNC(=N)N)NC(=O)[C@H](CC(=O)O)NC(=O)CNC1=O` [[(2S,5R,11R,14S)-11-Carboxymethyl-5,14-bis-(3-guanidino-propyl)-3,6,9,12,15,18-hexaoxo-1,4,7,10,13,16hexaaza-cyclooctadec-2-yl]-acetic acid] registered an IC50 greater than 100 µM.

Regarding `N=C(N)NCCC[C@@H]1NC(=O)[C@H](CC(=O)O)NC(=O)CNC(=O)[C@H](CCCNC(=N)N)NC(=O)[C@@H](CC(=O)O)NC(=O)CNC1=O` [[(2S,5R,11S,14S)-11-Carboxymethyl-5,14-bis-(3-guanidino-propyl)-3,6,9,12,15,18-hexaoxo-1,4,7,10,13,16hexaaza-cyclooctadec-2-yl]-acetic acid], the 50% inhibitory concentration (IC50) is greater than 100 µM.

`N=C(N)NCCC[C@H](NC(=O)[C@H](CC(=O)O)NC(=O)CNC(=O)[C@@H](N)CCCNC(=N)N)C(=O)NCC(=O)N[C@@H](CC(=O)O)C(=O)O` [(S)-2-[2-((S)-2-{(S)-2-[2-((S)-2-Amino-5-guanidino-pentanoylamino)-acetylamino]-3-carboxy-propionylamino}-5-guanidino-pentanoylamino)-acetylamino]-succinic acid] (H-RGDRGD-OH) returned an IC50 greater than 100 µM.
